Measured values published in patent US20190183960A1, “METHOD TO TREAT ASTHMA AND AIRWAY ALLERGY USING CYCLO TYROSINE-VALINE AND RELATED COMPOUNDS” (Chang Gung Biotechnology Corp., priority 2017, published 2019).
Each block holds one compound with its values, some of them ahead of it.

What was measured:
[1] = system: IL-4 secretion by Th2 cells; assay: IL-4 secretion by Th2 cells derived from BALB/c mice (ELISA); format: cell-based; details: 3 days; for secretion of pro-inflammatory IL-4 by Th2 cells: 2.3 μM, vs vehicle (0.5% DMSO)
Method: Given that Th2 cells mediate the immunological effects of asthma in humans and animals, we tested the effects of cyclo Tyr-Val on Th2 cells in culture. Naive T cells were isolated from BALB/c mice, and the cells were incubated in a culture medium containing anti-CD3 antibody (2 μg/ml), anti-CD28 antibody (2 μg/ml), anti-interferon-γ (IFN-γ) antibody (10 μg/ml), and IL-4 (10 ng/ml) in order to induce T cell differentiation into Th2 cells. The Th2 cells were treated for 3 days with 2.3 μM of cyclo Tyr-Val, cyclo alanine-isoleucine (cyclo Ala-Ile), cyclo alanine-leucine (cyclo Ala-Leu), cyclo tyrosine-leucine (cyclo Tyr-Leu), cyclo alanine-phenylalanine (cyclo Ala-Phe), or cyclo tyrosine-isoleucine (cyclo Tyr-Ile), and IL-4 protein level was measured using an enzyme-linked immunosorbent assay (ELISA) kit (eBioscience, USA).
(§1) We confirmed that cyclo Tyr-Val inhibits IL-4 secretion by Th2 cells. Th2 cells isolated from BALB/c or C57BL/6J mice were either left untreated or treated for 3 days with the vehicle (0.5% DMSO in saline) or various concentrations of cyclo Tyr-Val, followed by detection of IL-4 production using ELISA.
(§2) The effects of cyclo Tyr-Val on the secretion of other pro-inflammatory cytokines were investigated. […] As shown in FIGS. 4A-4C, cyclo Tyr-Val inhibited not only the secretion of IL-4, but also that of IL-5 and IL-13.

[2] = system: OVA-induced asthmatic mice; assay: Mode of administration (IP, inhalation, oral) in OVA-induced asthmatic mice; format: in vivo, BALB/c mice; details: 11.304 nmol/kg per day, 7 days
Method: This example illustrates the effects of the mode of administration of cyclo Tyr-Val on asthmatic mice. OVA-induced asthmatic mice (BALB/c) were established according to the method described in Example 2. On day 21, the mice were treated intraperitoneally (IP), by inhalation (IH), or orally with cyclo Tyr-Val (at a dose of 11.304 nmol/kg of body weight per day) for 7 days, followed by assessment of AHR, total cell count in BALF, and eosinophil count in BALE OVA-induced asthmatic mice that were administered daily with the vehicle (0.5% DMSO in saline) intraperitoneally were used as control. As shown in FIGS. 9A-9C, treatment of OVA-induced asthmatic mice with cyclo Tyr-Val for 7 days via intraperitoneal injection, inhalation, or the oral route reduced AHR, total BALF cell count, and BALF eosinophil accumulation, compared with the vehicle-treated group.

[3] = system: OVA-induced asthmatic mice; assay: BALF total cell and eosinophil count in OVA-induced asthmatic mice; format: in vivo, BALB/c mice; details: IP 0.11304-113.04 nmol/kg per day, day 21 to 27
From the text: (§3) Given that asthma is characterized by accumulation of immune cells including eosinophils in lung tissues, we studied the effects of cyclo Tyr-Val on BALF cell count, pro-inflammatory cytokine secretion, and antibody production. OVA-induced asthmatic mice (BALB/c) were established according to the method described in Example 2. After the mice were intraperitoneally treated with the vehicle (0.5% DMSO in saline) or cyclo Tyr-Val at a dose of 0.11304, 1.1304, 11.304, or 113.04 nmol/kg of body weight per day on day 21 to 27, BALF and serum were collected. Total cell count in BALF was determined using a hemocytometer; eosinophils were counted after isolation using Cytospin. Protein levels of IL-4, IL-5, and IL-13 in BALF were determined using ELISA. Serum protein levels of OVA-specific antibodies, including IgE, IgG1, and IgG2a, were determined using ELISA (eBioscience).

[4] = system: IL-4 secretion by Th2 cells; assay: IL-4 secretion by Th2 cells derived from C57BL/6J mice (ELISA); format: cell-based; details: 3 days
From the text: as §1

[5] = system: IL-5 secretion by Th2 cells; assay: IL-5 secretion by Th2 cells derived from BALB/c mice (ELISA); format: cell-based; details: 0.25 μM, 3 days
From the text: as §2

[6] = system: OVA-induced asthmatic mice; assay: OVA-induced airway hyperresponsiveness (Penh, whole-body plethysmography, methacholine); format: in vivo, BALB/c mice; details: IP 0.11304-113.04 nmol/kg per day, day 21 to 27, methacholine 0-40 mg/ml
Method: Given that asthma is characterized by hyperresponsiveness to airway stimulants, we examined the effect of cyclo Tyr-Val on AHR in the OVA-induced asthmatic mice stimulated with the exemplary antigen OVA and methacholine (Mch). BALB/c mice were treated intraperitoneally with 50 μg of OVA (Sigma, USA) mixed with 0.8 mg of aluminum hydroxide (Thermo Fischer Scientific, USA) on day 0, 1, 2, and 14, and treated with 2% OVA for 20 minutes using a nebulizer (Pulmo-Aide 5650D; DeVilbiss, USA) on day 14, 17, 21, 24, and 27. The OVA-induced asthmatic mice were intraperitoneally treated with the vehicle (0.5% DMSO in saline) or cyclo Tyr-Val at a dose of 0.11304, 1.1304, 11.304, or 113.04 nmol/kg of body weight per day on day 21 to 27. Airway resistance (Penh) was measured using a whole-body plethysmography (WBP) chamber (Buxco Electronics, USA) after stimulation with methacholine at doses of 0, 10, 20, 30, and 40 mg/ml.

[7] = system: OVA-induced asthmatic mice; assay: Serum OVA-specific antibodies in OVA-induced asthmatic mice (ELISA); format: in vivo, BALB/c mice; details: IP 0.11304-113.04 nmol/kg per day, day 21 to 27
From the text: as §3

[8] = system: IL-13 secretion by Th2 cells; assay: IL-13 secretion by Th2 cells derived from BALB/c mice (ELISA); format: cell-based; details: 0.25 μM, 3 days
From the text: as §2

[9] = system: OVA-induced asthmatic mice; assay: Treatment after establishment of OVA-induced AHR, comparison with dexamethasone; format: in vivo, BALB/c mice; details: IP 11.304 nmol/kg per day, day 28 to 34, after establishment of AHR
Method: In this example, the anti-asthmatic effect of cyclo Tyr-Val was compared with those of dexamethasone, a pharmaceutical drug conventionally used to treat asthma. OVA-induced asthmatic mice (BALB/c) were established according to the method described in Example 2. The mice were treated with 2% OVA using a nebulizer on day 30 and 33 and were intraperitoneally treated with the vehicle (0.5% DMSO in saline) or cyclo Tyr-Val (at a dose of 11.304 nmol/kg of body weight per day) on day 28 to 34, followed by measurement of AHR, total cell count in BALF, and eosinophil count in BALF. Another group of OVA-induced asthmatic mice that were treated orally with dexamethasone (at a dose of 3 mg/kg of body weight per day) on day 28 to 34 were used as a positive control.

Th2 cells = assay: Viability of Th2 cells (WST-1 kit); format: cell-based, BALB/c mice; details: 0.018-285.932 μM, 3 days
Method: Experiments were performed to examine the effects of cyclo Tyr-Val on cell viability. Th2 cells isolated from BALB/c mice were either left untreated or treated for 3 days with the vehicle (0.5% DMSO in saline) or cyclo Tyr-Val at a concentration of 0.018, 0.091, 0.457, 2.287, 11.438, 57.186, or 285.932 μM. The viability of these cells was assessed using the WST-1 kit (Roche, Switzerland) according to the manufacturer's instructions.

[10] = Blood biochemical parameters (hepatic and renal functions) in mice; format: in vivo; details: IP 11.304 nmol/kg
Method: The effects of cyclo Tyr-Val treatment on hepatic and renal functions in mice were evaluated to determine if the compound produces toxic side effects. For these experiments, saline-treated mice (control group) or OVA-induced asthmatic mice were intraperitoneally treated with the vehicle (0.5% DMSO in saline) or cyclo Tyr-Val (at a dose of 11.304 nmol/kg), followed by measurement of blood biochemical parameters, including levels of aspartate transaminase (AST), alanine transaminase (ALT), total bilirubin (T-BIL), albumin (ALB), blood urea nitrogen (BUN), creatinine (CREA), and uric acid (UA). The blood biochemical parameters were monitored using a Hitachi 7080 biochemical analyzer (Hitachi, Japan).

[11] = system: OVA-induced asthmatic mice; assay: IL-4, IL-5, IL-13 protein levels in BALF of OVA-induced asthmatic mice (ELISA); format: in vivo, BALB/c mice; details: IP 0.11304-113.04 nmol/kg per day, day 21 to 27
From the text: as §3

Compound: CC(C)C[C@@H]1NC(=O)[C@H](C)NC1=O [cyclo Ala-Leu, cyclo alanine-leucine, reference compound]
secretion of pro-inflammatory IL-4 by Th2 cells [1]: failed to inhibit IL-4 secretion

Compound: CC[C@H](C)[C@@H]1NC(=O)[C@H](Cc2ccc(O)cc2)NC1=O [cyclo Tyr-Ile, cyclo tyrosine-isoleucine, reference compound]
secretion of pro-inflammatory IL-4 by Th2 cells [1]: failed to inhibit IL-4 secretion

Compound: CC(C)CC1NC(=O)C(Cc2ccc(O)cc2)NC1=O (stereo not shown) [cyclo Tyr-Leu, cyclo tyrosine-leucine]
secretion of pro-inflammatory IL-4 by Th2 cells [1]: inhibited IL-4 to some extent

Compound: CC1NC(=O)C(Cc2ccccc2)NC1=O (stereo not shown) [cyclo Ala-Phe, cyclo alanine-phenylalanine, reference compound]
secretion of pro-inflammatory IL-4 by Th2 cells [1]: failed to inhibit IL-4 secretion

Compound: CC[C@H](C)[C@@H]1NC(=O)[C@H](C)NC1=O [cyclo Ala-Ile, cyclo alanine-isoleucine, reference compound]
secretion of pro-inflammatory IL-4 by Th2 cells [1]: failed to inhibit IL-4 secretion

IC50 ([1]; Mus musculus, 72 h, Th2 cells from BALB/c mice, read-out: IC50, inhibition of IL-4 secretion): 26.4 nM | IC90 ([1]; Mus musculus, 72 h, Th2 cells from BALB/c mice, read-out: IC90, inhibition of IL-4 secretion): 252 nM | IC50 ([4]; Mus musculus, 72 h, Th2 cells from C57BL/6J mice, read-out: IC50, inhibition of IL-4 secretion): 45.1 nM | IC90 ([4]; Mus musculus, 72 h, Th2 cells from C57BL/6J mice, read-out: IC90, inhibition of IL-4 secretion): 357 nM | ALB ([10]; OVA-induced asthmatic mice): 2.737 ± 0.322 g/dL | BUN ([10]; OVA-induced asthmatic mice): 25.864 ± 2.638 mg/dL | CREA ([10]; OVA-induced asthmatic mice): 0.250 ± 0.078 mg/dL | T-BIL ([10]; OVA-induced asthmatic mice): 26.508 ± 2.454 µg/dL | UA ([10]; OVA-induced asthmatic mice): 2.690 ± 0.275 mg/dL | hepatic or renal functions ([10]; control and OVA-induced asthmatic mice): did not significantly affect | ALB ([10]; control mice): 2.669 ± 0.480 g/dL | BUN ([10]; control mice): 26.588 ± 2.756 mg/dL | CREA ([10]; control mice): 0.236 ± 0.124 mg/dL | T-BIL ([10]; control mice): 26.169 ± 3.536 µg/dL | UA ([10]; control mice): 2.979 ± 0.412 mg/dL
Compound: CC(C)C1NC(=O)C(Cc2ccc(O)cc2)NC1=O (stereo not shown) [cyclo Tyr-Val, cyclo tyrosine-valine]
AHR ([2]; inhalation): reduced | BALF eosinophil accumulation ([2]; inhalation): reduced | total BALF cell count ([2]; inhalation): reduced | AHR ([2]; intraperitoneal injection): reduced | BALF eosinophil accumulation ([2]; intraperitoneal injection): reduced | total BALF cell count ([2]; intraperitoneal injection): reduced | AHR ([2]; oral route): reduced | BALF eosinophil accumulation ([2]; oral route): reduced | total BALF cell count ([2]; oral route): reduced | secretion of IL-4 ([1]; 0.25 μM): inhibited | secretion of pro-inflammatory IL-4 by Th2 cells [1]: significantly inhibited | IL-4 secretion, dose dependence ([1]; various concentrations, BALB/c Th2 cells): inhibited IL-4 secretion in a dose-dependent manner | OVA-induced cell infiltration in BALF (total cell count) [3]: reduced | OVA-induced eosinophilia in BALF [3]: reduced | IL-4 secretion, dose dependence ([4]; various concentrations, C57BL/6J Th2 cells): inhibited IL-4 secretion in a dose-dependent manner | secretion of IL-5 [5]: inhibited | OVA-induced AHR (airway resistance, Penh) [6]: inhibited OVA-induced AHR in a dose-dependent manner | OVA-specific IgE production in sera [7]: dose-dependently reduces | OVA-specific IgG1 production in sera [7]: dose-dependently reduces | OVA-specific IgG2a production in sera [7]: dose-dependently reduces | secretion of IL-13 [8]: inhibited | AHR [9]: significantly reduced | BALF eosinophil accumulation [9]: significantly reduced | BALF total cell count [9]: significantly reduced | cytotoxic effects on cultured Th2 cells (viability) (Th2 cells): no cytotoxic effects | ALT ([10]; OVA-induced asthmatic mice): 26.673 ± 2.279 U/l | AST ([10]; OVA-induced asthmatic mice): 69.718 ± 4.115 U/l | ALT ([10]; control mice): 26.283 ± 2.813 U/l | AST ([10]; control mice): 70.775 ± 3.056 U/l | OVA-induced secretion of IL-4 in BALF [11]: reduced | OVA-induced secretion of IL-5 in BALF [11]: reduced | OVA-induced secretion of IL-13 in BALF [11]: reduced
